# Results reported in patent publication US20110183926A1, “TREATMENT USING CONTINUOUS LOW DOSE APPLICATION OF SUGAR ANALOGS” (UNIVERSITY OF MIAMI, priority 2008, published 2011).
# Test system: MDA-MB-435 cells
# Test: orthotopic human breast cancer mouse model, continuous 2-DG by intraperitoneal osmotic pump
# Type: in vivo
# Settings: 19 μg/ml/hr or 30 mg/kg per 24 hrs continuously for 4 weeks; intraperitoneal osmotic pump filled with 328 mg/ml; MDA-MB-435 orthotopic in CD-1 nude mice
# Protocol: 2×10^6 MDA-MB-435 cells were injected orthotopically to CD-1 nude mice. After two weeks, osmotic pumps (Model 1004, Alzet Inc.) were inserted into the peritoneal cavity under general anesthesia. In one group of animals (n=9), the pumps contained 0.9% NaCl, while in the other group (n=5), the pumps were filled with 2-DG at a concentration of 328 mg/ml. Mice were weighed, and tumor measurements were taken by caliper three times weekly. Tumor measurements were converted to tumor volume by using the formula W×L^2/2. Mice were killed when either W or L exceeded 15 mm. At sacrifice, mice were weighed, and tumors were excised and checked histologically for verification of tumor growth.
structure (smiles),measurement,value
"O=CC[C@@H](O)[C@H](O)[C@H](O)CO [2-DG, 2-deoxy-D-glucose]","tumor burden (tumor volume by caliper, W×L^2/2)",effectively reduces tumor burden
